Test results from patent US8642559B2, “C-terminal domain truncation of mGluR1α by calpain and uses thereof” (priority 2006, dated 2014).
“Also recorded” adds a separate entry of the source.

Experiments:
[1] = system: cultured neurons; assay: Blockade of NMDA neurotoxicity in cultured neurons (live/dead cell assay); format: cell-based; conditions: peptide 8 μM, pretreated 90 min; NMDA 50 μM 1 h; analyzed 12 h later
Protocol: In this figure, cultured neurons were pretreated with the tat-peptide for 90 min. They were then treated with NMDA (50 μM) for 1 h. They were analyzed 12 h later by live/dead cell assay (0.5 μM EthD-1 and 2 μM Calcein AM).

[2] = system: mGluR1α; assay: In vivo truncation of mGluR1α in hippocampus after kainic acid injection; conditions: peptide i.p. 90 min before kainic acid 30 mg/kg s.c., mice
Protocol: (§1) The tat-peptide was injected i.p. 90 min before kainic acid injection. Note that the peptide had no effect on seizure intensity (bottom left).
The objective of this set of experiments was to verify that the feedback mechanism of the present invention could take place in vivo and participate in excitotoxicity. We used the kainic acid model of excitotoxicity, as this model has been widely used to study the mechanisms underlying in vivo excitotoxicity (Wang et al. Mol Neurobiol 31:3-16, 2005). Mice were injected with kainic acid and sacrificed at different times after injection. Levels of mGluR1α were determined in hippocampus with both Western blots and immunohistochemistry (FIG. 10).

[3] = system: hippocampal neurons; assay: Kainic acid-induced neuronal damage (silver staining) and seizures in mice; format: in vivo
Protocol: as §1
They were sacrificed after 7 days and brains processed for silver staining, a marker of cell damage. Note the heavy labeling of the pyramidal cell layer in the KA alone group.
The effect of the tat-mGluR1 peptide on kainic acid-induced neuronal damage was also evaluated.

[4] = system: mGluR1; assay: Brain membranes treated with purified calpain and calcium: mGluR1 truncation; format: biochemical; conditions: purified calpain, calcium
Protocol: (§2) As previously mentioned, calpain inhibitors were previously shown to exert neuroprotective effects in some models of neurodegeneration, and it could be argued that the effects of the tat-mGluR1 peptide we observed were due to some calpain inhibitor effects of the peptide. However, the inventors of the present invention have discovered that this is not likely the case. In particular, when brain membranes were treated with purified calpain in the presence of calcium, truncation of both mGluR1 and spectrin was observed. […] The inventors believe that the peptide acts as a calpain substrate competing with mGluR1 for calpain. The selective protection of tat-mGluR1 has the advantage that it may act as a selective blocking agent without disrupting calpain's other enzymatic activities. Thus, a blocking agent of the present invention will have the advantage of having reduced side-effect profile than calpain inhibitors.

[5] = system: spectrin; assay: Brain membranes treated with purified calpain and calcium: spectrin degradation; format: biochemical; conditions: purified calpain, calcium
Protocol: as §2

[6] = system: cultured hippocampal slices; assay: OGD-induced cell death in cultured hippocampal slices (LDH release, PI uptake); format: cell-based; conditions: 10 μM for 3 h before and during OGD (30 min); 3 h and 24 h after OGD
Protocol: Cultured slices were subjected to OGD for 30 min, and returned to normal glucose and oxygen conditions for 24 h. Neuronal damage was assessed by the propidium iodide (PI) uptake method, which labels damaged cells (a, b), and by LDH release in culture medium (c).
We used a well-known in vitro stroke model, combined oxygen/glucose deprivation in cultured hippocampal slices, to test the idea that the mechanism we have proposed, i.e., calpain-mediated truncation of mGluR1, accounts for neuronal death in stroke. Furthermore, we tested the neuroprotective effects of the tat-mGluR1 peptide in this stroke model. In this model, cultured hippocampal slices are treated for various periods of time (30-60 min) by changing the cultured medium to a medium without glucose and replacing the normal air/5% CO2 with nitrogen. After this period of time, slices are returned to normal glucose-containing medium and exposed to air/5% CO2 and are cultured for again various periods of time. Cell death is evaluated by measuring the amount of LDH release in the medium at various times, as well as by the extent of Propidium Iodide (PI) uptake in the cells (LDH release in the medium is an index of membrane damage, as LDH is a cytoplasmic enzyme; likewise, PI is generally not taken up by cells, except if the cell membrane is severely compromised).

[7] = system: mGluR1α; assay: OGD-induced mGluR1 truncation in cultured hippocampal slices (immunoblot); format: cell-based; conditions: longer OGD (50-min), 6 or 24 hours recovery
Protocol: Cultured hippocampal slices were subjected to 50-min OGD and returned to normal culture condition for another 6 or 24 hours.

[8] = system: mGluR1α; assay: Glutamate/NMDA-induced C-terminal truncation of mGluR1α in cultured cortical neurons (immunoblot); format: cell-based
From the text: Total cell lysates were separated by SDS-PAGE and probed with an antibody against the carboxyl terminus (residue 1142-1160) of mGluR1α. […] Total cell lysates were probed with an anti-myc antibody. […] Total cell lysates were probed with antibodies against mGluR5, G1uR2/3 and VGluT1 respectively.
Total cell lysate was collected immediately after treatment and subjected to SDS-PAGE and immunoblotting with an antibody against the carboxyl terminus (residues 1142-1160) of mGluR1α (FIG. 2A). […] Neurons were transfected with a calcium phosphate precipitation method modified for high transfection rate (Jian et al., Gene Ther 11:1301-1311, 2004).
Cortical neurons were treated with NMDA at the indicated concentrations for 1 h or treated with NMDA (10 μM) for the indicated times. Total cell lysates were separated by SDS-PAGE and probed with antibodies against mGluR1α1142-1160, Results were normalized over control values and are means±s.e.m. of 4 experiments.
To determine whether activation of mGluR1α itself was required for the truncation, two distinct mGluR1α antagonists were applied.
To further characterize NMDA-induced mGluR1α truncation, the concentration- and time-dependencies of the effects of NMDA were studied. Cortical neurons were first incubated with different concentrations of NMDA for a fixed period of time (1 hour) (FIG. 3F). […] In a following experiment, cortical neurons were incubated with 10 μM NMDA for different durations ranging from 1 to 60 min (FIG. 3G).
Cortical neurons were treated with NMDA (10 μM, 1 h). Total cell lysates were separated by SDS-PAGE and probed with antibodies against spectrin and mGluR1α1142-1160, respectively. Only the degradation bands of spectrin (spectrin DB, at ˜145 KD) are shown. […] In FIG. 4C, purified myc-mGluR1α was digested with μ-calpain at the indicated concentrations (U/ml) for 30 min. The digested material was processed for SDS-PAGE and subjected to silver staining or immunoblots with anti-myc or anti-mGluR1α1142-1160 antibodies. […] The 1st lane was the myc-mGluR1α immunoprecipitated from 293 cells; the 2nd and 3rd lanes were immunoprecipitated myc-mGluR1α digested with indicated concentration of calpain. […] FIG. 4F is the alignment of mGluR1 (902-941) and mGluR5 (889-927) surrounding the calpain cleavage site.
In this set of experiments, we determined which protease(s) mediated NMDA-induced truncation of mGluR1α. […] Cortical neurons were pretreated with a calpain inhibitor, the cell-permeable calpain-inhibitor III, or the caspase inhibitor cpm-VAD-CHO for 2 hours and then incubated in the absence or presence of 100 µM NMDA for 1 hour. […] To further confirm calpain activation by NMDA under our experimental conditions, we determined the levels of the calpain-specific spectrin degradation fragments.

[9] = system: myc-mGluR1α; assay: Targeting of myc-mGluR1α in transfected cortical neurons after NMDA (immunostaining); format: cell-based; conditions: NMDA 50 μM, 1 hour; 124 out of 367 neurons
Protocol: In FIG. 7A, cortical neurons were co-transfected with DsRED and myc-mGluR1α. After 48 h, neurons were fixed and stained with anti-myc and anti-DsRED antibodies. Some of the neurons were pre-treated with NMDA (50 μM, 1 h), and recovered for 3 h after washing out NMDA before fixation. Myc-mGluR1α (upper panel) was absent in axons (arrowhead) under control conditions. After pre-treatment with NMDA (lower panel), staining of myc-mGluR1α appeared in the proximal segment of axons. In FIG. 7B, cortical neurons were co-transfected with DsRED and myc-mGluR1α. After 48 h, neurons were fixed and stained with anti-DsRED and anti-mGluR1α1142-1160 antibodies with (lower panel) or without (upper panel) pretreatment with NMDA. Staining for mGluR1α was absent from axons in both conditions. In FIG. 7C, cortical neurons were co-transfected with DsRED and myc-mGluR1α936Δ. After 48 h, neurons were fixed and stained with anti-myc and anti-DsRED antibodies. […]
Previous studies have shown that the C-terminus domain of mGluR1α is crucial for its dendritic localization. […] But in ˜34% of neurons treated with NMDA (124 out of 367 neurons counted), the N-terminal fragment of wild-type mGluR1α could be detected in axons, especially in the proximal segment, whereas immunoreactivity against the C-terminus of mGluR1α was still restricted to dendrites (FIG. 7B).

[10] = system: cortical neurons; assay: NMDA/DHPG neuronal toxicity in cortical neurons (EthD-1/Calcein AM live/dead); format: cell-based; conditions: 100 μM NMDA for 1 hour; 24 hours after treatment
From the text: In FIGS. 8a and b, cortical neurons were co-transfected with green fluorescent protein (GFP) and vector DNA, myc-mGluR1α or myc-mGluR1α936Δ, respectively. […] Twelve hours later, neurons were stained with EthD-1 to label dead cells. Arrowheads in FIG. 8a indicate EthD-1 positive GFP-expressing neurons. * p<0.05. FIGS. 8c and d are representative photos and bar graphs showing differential roles of endogenous mGluR1 in neuronal toxicity before and after NMDA-induced truncation. Cortical neurons were treated as indicated and were stained with EthD-1 (for dead cells) and calcein AM (for live cells) 24 hours later. * p<0.001.
We then tested whether calpain-mediated truncation of endogenous mGluR1α also alters its roles in excitotoxicity. We used NMDA to elicit mGluR1α truncation and evaluated the roles of mGluR1 in neuronal toxicity by applying DHPG before and after truncation. Fourteen DIV cortical neurons cultured on 18×18 mm coverslips were divided into 6 groups, which received the following treatments, respectively: 1) “Control”: vehicle; 2) “NMDA”: 100 μM NMDA for 1 hour; 3) “DHPG before NMDA”: DHPG, 100 μM, for 1 hour, followed by 100 μM NMDA for 1 hour; 4) “DHPG after NMDA”: NMDA, 100 μM, for 1 hour, followed by 100 μM DHPG for 1 hour; 5) “DHPG+LY before NMDA”: 100 μM DHPG was co-applied with 100 μM LY367385 for 1 hour and followed by 100 μM NMDA for 1 hour; 6) “DHPG+LY after NMDA”: NMDA 100 μM for 1 hour, followed by 100 μM DHPG co-applied with 100 μM LY367385. Twenty-four hours after treatment, all neurons were stained for 20 minutes with 0.5 μM EthD-1 to label dead cells and 2 μM Calcein AM to label live cells. After three washes with culture medium, coverslips were mounted and one microscopy photo was immediately taken from the center area of each coverslip. EthD-1 and Calcein AM positive cells on each photo were then counted. The percentage of cell death was calculated as the number of EthD-1 positive cell/(number of EthD-1 positive cell+number of Calcein AM positive cell)*100%.

Row | Compound | prevention of NMDA-mediated neurotoxicity [1] | reduction of kainic acid-induced mGluR1 truncation [2] | effect on kainic acid-induced neuronal damage (silver staining of pyramidal cell layer) ([3]; peptide 100 mg/kg i.p. 90 min before kainic acid 30 mg/kg s.c., 7 days) | effect on severity or duration of kainic acid-induced seizures ([3]; peptide i.p. 90 min before kainic acid) | prevention of calpain-mediated mGluR1 truncation [4] | prevention of calpain-mediated spectrin degradation [5] | neuroprotection assessed with LDH release [6] | neuroprotection assessed with PI uptake [6] | block of OGD-induced mGluR1 truncation [7] | block of OGD-induced mGluR1 truncation ([7]; listed as TAT-mGluR1α fusion peptide) | minimum time required to induce truncation ([8]; 10 μM NMDA) [min] | treatment time after which truncation was maximal ([8]; 10 μM NMDA) [min] | EC50 ([8]; 1 hour incubation) [µM] | minimum concentration required to induce a significant mGluR1α truncation ([8]; 1 hour incubation) [µM] | neurons with N-terminal fragment of mGluR1α detected in axons [9] [%] | cell death [10] [%]
1 | YGRKKRRQRRRVIKPLTKSYQGSGK [tat-mGluR1 peptide] | almost completely prevented | significantly reduced | dramatically reduced; also recorded: significantly reduced | did not influence | prevented | not | complete neuroprotection | complete neuroprotection | almost completely blocked | partially restored |  |  |  |  |  | 
2 | CN[C@H](CC(=O)O)C(=O)O [NMDA] |  |  |  |  |  |  |  |  |  |  | 5 | 20 | ~10 | 10 | ~34 | 37
